Measurements taken from patent EP0031883A1, “Antimicrobial agent containing hydroxy butylimidazole derivatives” (BAYER AG, priority 1979, dated 1981).

System: Candida
Assay: Antimicrobial in-vivo activity (oral) in mouse candidosis
Design: species or system Mäuse
Conditions: SPF-CF1 mice infected i.v. with 1 - 2 x 10^6 Candida cells; 50 - 100 mg/kg oral, one hour before and seven hours after infection; untreated controls about 5 % survival on day 5
Experimental: Mäuze vom Typ SPF-CF1 wurden intravenös mit 1 - 2 x 10^6 logaritmisch wachsenden Candida-Zellen, die in physiologischer Kochsalzlösung suspendiert waren, infiziert. Eine Stunde vor und sieben Stunden nach der Infektion werden die Tiere mit jeweils 50 - 100 mg/kg Körpergewicht der Präparate oral behandelt.
Urbehandelte Tiere starben 3 bis 6 Tage post infektionen. Die Überlebensrate am 5. Tag post infektionen betrug bei unbehandelten Kontrolltieren etwa 5 %.

SMILES | Wirkung
Clc1ccc(COC(Cn2ccnc2)c2ccc(Cl)cc2Cl)c(Cl)c1 (stereo not drawn) [Miconazol®, 1-[2,4-Dichlor-β-(2,4-dichlorbenzyloxy)-phenethyl]-imidazolnatrium] | keine Wirkung
CC(C)(C)C(O)(Cn1ccnc1)c1ccc(-c2ccc(Cl)cc2)cc1 (centres unmarked) [Verbindung 2, 1-(4-p-Chlorbiphenylyl)-1-(tert.-butyl)-2-(imidazol-1-yl)-ethan-1-ol] | sehr gute Wirkung
